Source: ChEMBL document CHEMBL1649476, “In vitro chemosensitization of Plasmodium falciparum to antimalarials by verapamil and probenecid” (Antimicrob Agents Chemother, 2009)

What was measured:
Plasmodium falciparum [1] = experiment: Antiplasmodial activity against multidrug-resistant Plasmodium falciparum VS/1 by [3H]hypoxanthine incorporation assay; assay type: functional, organism-based
Plasmodium falciparum [2] = experiment: Selectivity ratio of IC50 for Plasmodium falciparum 3D7 to IC50 for multidrug-resistant Plasmodium falciparum VS/1; assay type: functional
Plasmodium falciparum [3] = experiment: Antiplasmodial activity against Plasmodium falciparum 3D7 by [3H]hypoxanthine incorporation assay; assay type: functional, organism-based
Plasmodium falciparum [4] = experiment: Chemosensitization of pyrimethamine against multidrug-resistant Plasmodium falciparum VS/1 by [3H]hypoxanthine incorporation assay; assay type: functional
Plasmodium falciparum [5] = experiment: Chemosensitization of sesquiterpene dihydroartemisinin pyronaridine against multidrug-resistant Plasmodium falciparum VS/1 by [3H]hypoxanthine incorporation assay; assay type: functional
Plasmodium falciparum [6] = experiment: Chemosensitization of quinine against multidrug-resistant Plasmodium falciparum VS/1 by [3H]hypoxanthine incorporation assay; assay type: functional
Plasmodium falciparum [7] = experiment: Chemosensitization of halofantrine against multidrug-resistant Plasmodium falciparum VS/1 by [3H]hypoxanthine incorporation assay; assay type: functional
Plasmodium falciparum [8] = experiment: Chemosensitization of mefloquine against multidrug-resistant Plasmodium falciparum VS/1 by [3H]hypoxanthine incorporation assay; assay type: functional
Plasmodium falciparum [9] = experiment: Chemosensitization of lumefantrine against multidrug-resistant Plasmodium falciparum VS/1 by [3H]hypoxanthine incorporation assay; assay type: functional
Plasmodium falciparum [10] = experiment: Chemosensitization of chlorcycloguanil against multidrug-resistant Plasmodium falciparum VS/1 by [3H]hypoxanthine incorporation assay; assay type: functional
Plasmodium falciparum [11] = experiment: Chemosensitization of amodiaquin against multidrug-resistant Plasmodium falciparum VS/1 by [3H]hypoxanthine incorporation assay; assay type: functional
Plasmodium falciparum [12] = experiment: Chemosensitization of chloroquine against multidrug-resistant Plasmodium falciparum VS/1 by [3H]hypoxanthine incorporation assay; assay type: functional
Plasmodium falciparum [13] = experiment: Chemosensitization of methotrexate against multidrug-resistant Plasmodium falciparum VS/1 by [3H]hypoxanthine incorporation assay; assay type: functional
Plasmodium falciparum [14] = experiment: Chemosensitization of benzonaphthyridine pyronaridine against multidrug-resistant Plasmodium falciparum VS/1 by [3H]hypoxanthine incorporation assay; assay type: functional
Plasmodium falciparum [15] = experiment: Chemosensitization of piperaquine against multidrug-resistant Plasmodium falciparum VS/1 by [3H]hypoxanthine incorporation assay; assay type: functional
Plasmodium falciparum [16] = experiment: Chemosensitization of desethylamodiaquin against multidrug-resistant Plasmodium falciparum VS/1 by [3H]hypoxanthine incorporation assay; assay type: functional
Plasmodium falciparum [17] = experiment: Chemosensitization of primaquine against multidrug-resistant Plasmodium falciparum VS/1 by [3H]hypoxanthine incorporation assay; assay type: functional

Compound: CCN(CC)Cc1cc(Nc2ccnc3cc(Cl)ccc23)ccc1O
- IC50 (Plasmodium falciparum [1]): 8 nM

Compound: CC1(C)N=C(N)N=C(N)N1c1ccc(Cl)c(Cl)c1 [CHLORCYCLOGUANIL]
- IC50 (Plasmodium falciparum [1]): 79 nM

Compound: CCNCc1cc(Nc2ccnc3cc(Cl)ccc23)ccc1O [DESETHYL AMODIAQUINE]
- IC50 (Plasmodium falciparum [1]): 42 nM

Compound: CCCCN(CCCC)CCC(O)c1cc2c(Cl)cc(Cl)cc2c2cc(C(F)(F)F)ccc12 (configuration not stated) [HALOFANTRINE]
- IC50 (Plasmodium falciparum [1]): 9 nM

Compound: CCCCN(CCCC)CC(O)c1cc(Cl)cc2c1-c1ccc(Cl)cc1/C2=C/c1ccc(Cl)cc1 (configuration not stated) [LUMEFANTRINE]
- IC50 (Plasmodium falciparum [1]): 53 nM
- Ratio IC50 (Plasmodium falciparum [2]): 2
- IC50 (Plasmodium falciparum [3]): 1690 nM

Compound: CN(Cc1cnc2nc(N)nc(N)c2n1)c1ccc(C(=O)N[C@@H](CCC(=O)O)C(=O)O)cc1 [METHOTREXATE]
- IC50 (Plasmodium falciparum [1]): 63 nM

Compound: Clc1ccc2c(N3CCN(CCCN4CCN(c5ccnc6cc(Cl)ccc56)CC4)CC3)ccnc2c1 [PIPERAQUINE]
- IC50 (Plasmodium falciparum [1]): 88 nM

Compound: COc1cc(NC(C)CCCN)c2ncccc2c1 (configuration not stated) [PRIMAQUINE]
- IC50 (Plasmodium falciparum [1]): 326 nM
- Ratio IC50 (Plasmodium falciparum [2]): 5
- IC50 (Plasmodium falciparum [3]): 326 nM

Compound: CCCN(CCC)S(=O)(=O)c1ccc(C(=O)O)cc1 [PROBENECID]
- FICI (Plasmodium falciparum [4]): 0.2 nM
- FICI (Plasmodium falciparum [5]): 1.12 nM
- FICI (Plasmodium falciparum [6]): 1.2 nM
- FICI (Plasmodium falciparum [7]): 0.57 nM
- FICI (Plasmodium falciparum [8]): 0.78 nM
- FICI (Plasmodium falciparum [9]): 1.21 nM
- FICI (Plasmodium falciparum [10]): 0.64 nM
- FICI (Plasmodium falciparum [11]): 1.57 nM
- FICI (Plasmodium falciparum [12]): 0.78 nM
- FICI (Plasmodium falciparum [13]): 1.02 nM
- FICI (Plasmodium falciparum [14]): 5.9 nM
- FICI (Plasmodium falciparum [15]): 0.12 nM
- FICI (Plasmodium falciparum [16]): 1.12 nM
- FICI (Plasmodium falciparum [17]): 0.83 nM

Compound: CCc1nc(N)nc(N)c1-c1ccc(Cl)cc1 [PYRIMETHAMINE]
- IC50 (Plasmodium falciparum [1]): 5000 nM

Compound: C=C[C@H]1CN2CC[C@H]1C[C@H]2[C@H](O)c1ccnc2ccc(OC)cc12 [QUININE]
- IC50 (Plasmodium falciparum [1]): 133 nM

Compound: COc1ccc(CCN(C)CCCC(C#N)(c2ccc(OC)c(OC)c2)C(C)C)cc1OC (configuration not stated) [VERAPAMIL]
- FICI (Plasmodium falciparum [4]): 1.07 nM
- FICI (Plasmodium falciparum [5]): 1.07 nM
- FICI (Plasmodium falciparum [6]): 0.39 nM
- FICI (Plasmodium falciparum [7]): 1.1 nM
- FICI (Plasmodium falciparum [8]): 1.12 nM
- FICI (Plasmodium falciparum [9]): 0.55 nM
- FICI (Plasmodium falciparum [10]): 1 nM
- FICI (Plasmodium falciparum [11]): 1.4 nM
- FICI (Plasmodium falciparum [12]): 0.52 nM
- FICI (Plasmodium falciparum [13]): 1.33 nM
- FICI (Plasmodium falciparum [14]): 1.07 nM
- FICI (Plasmodium falciparum [15]): 1.13 nM
- FICI (Plasmodium falciparum [16]): 0.47 nM
- FICI (Plasmodium falciparum [17]): 0.71 nM
